± gives the expanded uncertainty stated by the source.
Conditions: 298.15 K, 101.33 kPa, Liquid

**Q.** What does the source list for `OCCO` [1,2-ethanediol]?
**A.** viscosity (Cone and plate viscometry): 16.9 ± 1.7 mPa·s; electrical conductivity (Direct current cell with electrodes): 8.5e-05 ± 2e-06 S/m; thermal conductivity (transient hot wire): 0.2445 ± 0.0098 W/m/K
